According to patent US20070088067A1, “Novel amidine compounds for treating microbial infections” (priority 2003, published 2007):
Counter-ions that a name gives are not always drawn. Like-named read-outs stand apart in the source and are kept apart here.

Assays:
[1] = tested on: Plasmodium falciparum (P.f.); assay: in vitro effectiveness against Plasmodium falciparum; type: cell-based
Description: (§1) These compounds can thus be employed as treatments of second-stage human African trypanosomiasis.

[2] = tested on: Trypanosoma brucei rhodesiense (T.b.r.); assay: in vitro effectiveness against Trypanosoma brucei rhodesiense; type: cell-based
Description: as §1

[3] = tested on: Trypanosoma brucei rhodesiense (T.b.r.); assay: in vivo effectiveness against T.b.r. (cures); conditions: cures / animals treated
Description: as §1

[4] = Trypanosoma brucei, RHODESIENSE

| Structure (SMILES) | melting point | IC50 ([1]; Plasmodium falciparum) | IC50 [2, 4] | IC50 [1] | IC50 [2] | In vivo vs. T.b.r. cures [3] |
| --- | --- | --- | --- | --- | --- | --- |
| N#Cc1ccc(-c2cccc(C=O)n2)cc1 [Compound 6, 6-(4-Cyanophenyl)pyridine-2-carbaldehyde] | 158 to 159 °C | 25.5 nM | 21.7 nM |  |  |  |
| c1cc(-c2nc3ccc(C4=NCCN4)cc3[nH]2)ccc1CCc1ccc(-c2nc3ccc(C4=NCCN4)cc3[nH]2)cc1 [Compound 24, 4,4′-Bis{2-[-6(2-imidazolino]benzimidazolyl}-1,2-diphenylethanetetrahydrochloride] |  |  |  | 19.6 nM | 393 nM |  |
| CC(=O)O.N=C(N)c1ccc(-c2cccc(-c3nc4ccc(C(=N)N)cc4[nH]3)n2)cc1 [Compound 36, 2-(5-Amidinobenzimidazol-2-yl)-6-(4-amidinophenyl)pyridine acetate salt] |  | 9.7 nM | 24 nM |  |  | 1/4 |
| N=C(N)c1ccc(-c2ccc(-c3nc4cc(C(=N)N)ccc4o3)o2)cc1 [Compound 41] |  | 32 nM | 11 nM |  |  | 4/4 |
| CSc1cc(-c2ccc(-c3ccc(NC(=N)N)c(SC)c3)o2)ccc1NC(=N)N [Compound 42, 2,5-Bis(4-guanidino-3-thiomethoxyphenyl)furan Dihydrochloride] |  | 66 nM | 57 nM |  |  |  |
| Cc1cc(C(=N)N)ccc1-c1ccc(-c2nc3ccc(C(=N)N)cc3[nH]2)o1 [Compound 45, 2-{2-[5(6)-Amidino]benzimidazolyl}-5-[(4-amidino-2-methyl)-phenyl]-furan trihydochloride] |  |  |  | 147 nM | 9.4 nM | 2/4 |

Now from value to compound, other results behind:

| melting point | IC50 ([1]; Plasmodium falciparum) | IC50 [2, 4] | Structure (SMILES) | IC50 [1] | IC50 [2] | In vivo vs. T.b.r. cures [3] |
| --- | --- | --- | --- | --- | --- | --- |
|  | 5.1 nM | 32 nM | N=C(Nc1ccc(-c2ccc(-c3ccc(NC(=N)c4ccccn4)cc3O)o2)c(O)c1)c1ccccn1 [Compound 43, 2,5-Bis[2-hydroxy-4-(2-pyridylimino)amino]furan Dihydrochloride] |  |  |  |
|  | 14.7 nM | 40 nM | CCOc1cc(-c2ccc(-c3ccc(NC(=N)N)c(OCC)c3)o2)ccc1NC(=N)N [Compound 44, 2,5-Bis(3-ethoxy-4-guanidinophenyl)furan dihydrochloride] |  |  |  |
